The record followed here is article PMC12563536, “A Novel Allosteric Inhibitor Targeting IMPDH at Y233 Overcomes Resistance to Tyrosine Kinase Inhibitors in Lymphoma” (Cancers, 2025).

The structures appear in SMILES notation.

As a reminder, the IC50 is the concentration at which inhibition is half-maximal. The inhibition is the share of the control response that was lost under treatment. As a reminder, the % inhibition is the percentage by which the read-out fell short of the control.

Common to all, as to assay type: biochemical
Assay [1] addresses T1, recombinant human IMPDH2 (Homo sapiens, UniProt P12268).
T1 construct: commercial recombinant protein (R&D Systems); 514 residues full length; tetramer/octamer
Kind of assay: IMPDH activity assay kit, microplate. To be noted: targeted to allosteric GTP-binding site of the CBS domain (site from docking).

Assay [2] addresses T1, recombinant human IMPDH2. Description: IMPDH activity assay, 96-well screen. To be noted: read-out: % inhibition at 10 μM.
For assay [3], the target named is T1, recombinant human IMPDH2. Description: IMPDH activity assay kit, microplate, […] min preincubation. To be noted: dose-dependent, 50-200 µM tested.

T1 sequence (P12268 2-514): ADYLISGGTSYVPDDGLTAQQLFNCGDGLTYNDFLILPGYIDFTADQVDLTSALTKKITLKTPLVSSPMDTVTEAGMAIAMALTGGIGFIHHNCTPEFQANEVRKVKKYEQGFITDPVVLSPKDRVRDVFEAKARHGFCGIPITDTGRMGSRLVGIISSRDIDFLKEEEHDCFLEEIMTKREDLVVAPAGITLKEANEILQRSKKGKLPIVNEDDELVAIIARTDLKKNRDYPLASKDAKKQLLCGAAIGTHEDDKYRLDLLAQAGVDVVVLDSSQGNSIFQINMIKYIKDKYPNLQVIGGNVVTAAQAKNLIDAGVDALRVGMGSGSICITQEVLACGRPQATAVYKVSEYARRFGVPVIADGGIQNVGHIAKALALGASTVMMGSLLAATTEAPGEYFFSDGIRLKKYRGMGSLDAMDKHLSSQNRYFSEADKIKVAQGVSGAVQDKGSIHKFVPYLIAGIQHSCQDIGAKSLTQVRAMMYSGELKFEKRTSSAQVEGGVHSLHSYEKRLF

`O=C1C=CC(=O)c2c(O)c(N3CCN(CCOCCO)CC3)c(Br)c(O)c21` [compound 10, Comp-10]: at recombinant human IMPDH2 [1], the IC50 was about 260 nM. With `CN(C)c1ccc(C=c2sc3nc(=O)c(-c4ccccc4NC(=O)C(F)(F)F)nn3c2=O)cc1` [compound 5, comp-5], the inhibition at 10 µM at recombinant human IMPDH2 [2] was over 32%. Same read-out and setting: then `O=C1c2ccccc2C(=O)C1C(c1ccc([N+](=O)[O-])cc1)C1C(=O)c2ccccc2C1=O` [compound 12, comp-12], with over 52%. Turning to `CCCCCCCC(=O)OC[C@H](COP(=O)(O)O[C@@H]1[C@H](O)[C@H](OP(=O)(O)O)[C@@H](O)[C@H](O)[C@H]1O)OC(=O)CCCCCCC` [PI(3)P diC8], the “% inhibition at 200 μM” value on recombinant human IMPDH2 [3] is over 50%.
